19 compounds from patent US10106559B2, “Substituted tetrahydrocarbazole and carbazole carboxamide compounds” (BRISTOL-MYERS SQUIBB COMPANY, priority 2013, dated 2018) can be followed below.

Some results are limits rather than exact numbers.

For one experiment, the target named is Jak2 tyrosine kinase (Homo sapiens (Human), UniProt O60674). Briefly: Jak2 Tyrosine Kinase Assay. Format: biochemical.
For experiment [1], the system named is CD69 expression on B cells in human whole blood. Kind of experiment: Whole Blood Assay of BCR-Stimulated CD69 Expression on B Cells. Format: cell-based. To be noted: B-cell.
Setting [2] is: selectivity: Jak2 IC50 divided by Btk IC50.

Chain of Jak2 tyrosine kinase (O60674 whole entry): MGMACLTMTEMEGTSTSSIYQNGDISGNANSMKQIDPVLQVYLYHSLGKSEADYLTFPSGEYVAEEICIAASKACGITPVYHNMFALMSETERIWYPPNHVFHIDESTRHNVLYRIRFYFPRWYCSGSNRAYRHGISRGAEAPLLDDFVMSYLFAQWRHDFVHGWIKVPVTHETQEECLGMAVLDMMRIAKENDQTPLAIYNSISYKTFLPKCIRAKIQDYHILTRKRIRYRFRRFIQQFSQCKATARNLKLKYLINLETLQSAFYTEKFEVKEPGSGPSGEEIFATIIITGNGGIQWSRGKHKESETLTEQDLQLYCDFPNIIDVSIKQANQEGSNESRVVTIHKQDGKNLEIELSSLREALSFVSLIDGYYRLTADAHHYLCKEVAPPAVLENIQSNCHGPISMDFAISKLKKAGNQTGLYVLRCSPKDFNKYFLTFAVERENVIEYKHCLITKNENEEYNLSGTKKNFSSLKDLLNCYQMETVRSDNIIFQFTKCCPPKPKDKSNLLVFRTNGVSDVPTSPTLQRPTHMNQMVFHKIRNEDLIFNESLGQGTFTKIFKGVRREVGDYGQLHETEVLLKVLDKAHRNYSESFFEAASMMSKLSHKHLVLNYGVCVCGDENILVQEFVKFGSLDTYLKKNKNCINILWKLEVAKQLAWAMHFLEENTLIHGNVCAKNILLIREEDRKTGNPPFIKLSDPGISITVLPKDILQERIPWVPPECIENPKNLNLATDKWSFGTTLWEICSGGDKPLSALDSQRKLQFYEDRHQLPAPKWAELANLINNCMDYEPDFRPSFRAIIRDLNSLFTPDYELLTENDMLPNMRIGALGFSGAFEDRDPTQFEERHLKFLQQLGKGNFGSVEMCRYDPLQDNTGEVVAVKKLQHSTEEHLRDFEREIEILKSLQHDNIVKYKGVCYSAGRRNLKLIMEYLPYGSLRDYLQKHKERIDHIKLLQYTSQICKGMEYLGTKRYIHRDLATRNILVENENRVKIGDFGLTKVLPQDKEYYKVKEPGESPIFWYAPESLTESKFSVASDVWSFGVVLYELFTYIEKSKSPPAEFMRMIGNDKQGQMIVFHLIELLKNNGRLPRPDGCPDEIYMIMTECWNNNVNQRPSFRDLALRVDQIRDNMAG

On to `Cc1c(-c2c(F)cc(C(N)=O)c3[nH]c4cc(C(C)(C)O)ccc4c23)cccc1-n1c(=O)cc2c(F)cccn2c1=O` [Example 40, 3-Fluoro-4-(R)-(3-(5-fluoro-1,3-dioxo-1H-pyrido[1,2-c]pyrimidin-2(3H)-yl)-2-methylphenyl)-7-(2-hydroxypropan-2-yl)-9H-carbazole-1-carboxamide], for which the “Ratio of Jak2/Btk IC50 values” on Jak2 tyrosine kinase (setting [2]) was 1800.

As for `Cc1c(-c2c(Cl)cc(C(N)=O)c3[nH]c4cc(C(C)(C)O)ccc4c23)cccc1-n1c(=O)cc2c(F)cccn2c1=O` [Example 35, 3-Chloro-4-(R)-(3-(5-fluoro-1,3-dioxo-1H-pyrido[1,2-c]pyrimidin-2(3H)-yl)-2-methylphenyl)-7-(2-hydroxypropan-2-yl)-9H-carbazole-1-carboxamide], on Jak2 tyrosine kinase (setting [2]), the “Ratio of Jak2/Btk IC50 values” stood at 3200.

With `Cc1c(-c2c(Cl)cc(C(N)=O)c3[nH]c4cc(C(C)(C)O)ccc4c23)cccc1-n1c(=O)cc2c(F)cccn2c1=O` [Example 34, 3-Chloro-4-(3-(5-fluoro-1,3-dioxo-1H-pyrido[1,2-c]pyrimidin-2(3H)-yl)-2-methylphenyl)-7-(2-hydroxypropan-2-yl)-9H-carbazole-1-carboxamide], the “Ratio of Jak2/Btk IC50 values” at Jak2 tyrosine kinase (setting [2]) is given as 440.

What is called IC50 is the concentration needed to halve the response being measured. Lower therefore signals greater potency. As for `Cn1c(=O)n(-c2cccc(-c3c(F)cc(C(N)=O)c4[nH]c5cc(C(C)(C)O)ccc5c34)c2Cl)c(=O)c2cccc(F)c21` [Example 46, 4-(2-Chloro-3-(8-fluoro-1-methyl-2,4-dioxo-1,2-dihydroquinazolin-3(4H)-yl)phenyl)-3-fluoro-7-(2-hydroxypropan-2-yl)-9H-carbazole-1-carboxamide], 88 nM corresponded to half-maximal inhibition in experiment [1] (IC50).

For `Cc1c(-c2c(Cl)cc(C(N)=O)c3[nH]c4cc(C(C)(C)O)ccc4c23)cccc1-n1c(=O)c2ccc(F)cc2n(C)c1=O` [Example 9, 3-Chloro-4-(R)-(3-(7-fluoro-1-methyl-2,4-dioxo-1,2-dihydroquinazolin-3(4H)-yl)-2-methylphenyl)-7-(2-hydroxypropan-2-yl)-9H-carbazole-1-carboxamide], the half-maximal inhibitory concentration (IC50) in experiment [1] was found to be 76 nM.

For `COc1ccc2c(=O)n(-c3cccc(-c4c(Cl)cc(C(N)=O)c5[nH]c6cc(C(C)(C)O)ccc6c45)c3C)c(=O)n(C)c2c1` (single isomer, unassigned) [Example 5], on Jak2 tyrosine kinase (setting [2]), the “Ratio of Jak2/Btk IC50 values” is given as above 950.

As for `Cc1c(-c2c(F)cc(C(N)=O)c3[nH]c4c(c23)CC[C@H](C(C)(C)O)C4)cccc1-n1c(=O)c2cccc(F)c2n(C)c1=O` (atropisomer, axis not shown) [Example 28, 6-Fluoro-5-(R)-(3-(S)-(8-fluoro-1-methyl-2,4-dioxo-1,2-dihydroquinazolin-3(4H)-yl)-2-methylphenyl)-2-(S)-(2-hydroxypropan-2-yl)-2,3,4,9-tetrahydro-1H-carbazole-8-carboxamide], the “Ratio of Jak2/Btk IC50 values” at Jak2 tyrosine kinase (setting [2]) worked out at 59000.

In the case of `Cc1c(-c2c(Cl)cc(C(N)=O)c3[nH]c4cc(C(C)(C)O)ccc4c23)cccc1-n1c(=O)cc2sccn2c1=O` [Example 38, 3-Chloro-4-(R)-(3-(5,7-dioxo-5H-thiazolo[3,2-c]pyrimidin-6(7H)-yl)-2-methylphenyl)-7-(2-hydroxypropan-2-yl)-9H-carbazole-1-carboxamide], on Jak2 tyrosine kinase (setting [2]), the “Ratio of Jak2/Btk IC50 values” stood at 880.

`Cc1c(-c2c(C#N)cc(C(N)=O)c3[nH]c4cc(C(C)(C)O)ccc4c23)cccc1-n1c(=O)c2cccc(F)c2n(C)c1=O` [Example 15, 3-Cyano-4-(S)-(3-(8-fluoro-1-methyl-2,4-dioxo-1,2-dihydroquinazolin-3(4H)-yl)-2-methylphenyl)-7-(2-hydroxypropan-2-yl)-9H-carbazole-1-carboxamide]: on Jak2 tyrosine kinase (setting [2]), the “Ratio of Jak2/Btk IC50 values” was 2400.

Turning to `Cc1c(-c2c(Cl)cc(C(N)=O)c3[nH]c4cc(C(C)(C)O)ccc4c23)cccc1-n1c(=O)c2cccc(C)c2n(C)c1=O` [Example 4, 3-Chloro-4-(R)-(3-(1,8-dimethyl-2,4-dioxo-1,2-dihydroquinazolin-3(4H)-yl)-2-methylphenyl)-7-(2-hydroxypropan-2-yl)-9H-carbazole-1-carboxamide], in experiment [1], the 50% inhibitory concentration (IC50) is 180 nM.

The compound `Cc1c(-c2c(F)cc(C(N)=O)c3[nH]c4cc(C(C)(C)O)ccc4c23)cccc1-n1c(=O)[nH]c2c(F)cc(F)cc2c1=O` (single isomer, unassigned) [Example 73] gave a half-inhibitory concentration (IC50) against Jak2 tyrosine kinase of 580 nM. In other words, the sub-micromolar range.

Consider `Cc1c(-c2c(F)cc(C(N)=O)c3[nH]c4c(c23)CC[C@H](C(C)(C)O)C4)cccc1-n1c(=O)cc2c(F)cccn2c1=O` (single isomer, unassigned) [Example 69], for which the “Ratio of Jak2/Btk IC50 values” on Jak2 tyrosine kinase (setting [2]) worked out at 11000.

In the case of `COc1ccc2c(=O)n(-c3cccc(-c4c(Cl)cc(C(N)=O)c5[nH]c6cc(C(C)(C)O)ccc6c45)c3C)c(=O)n(C)c2c1` (single isomer, unassigned) [Example 6], at Jak2 tyrosine kinase (setting [2]), the “Ratio of Jak2/Btk IC50 values” was determined as 1400.

Consider `Cc1c(-c2c(Cl)cc(C(N)=O)c3[nH]c4cc(C(C)(C)O)ccc4c23)cccc1-n1c(=O)[nH]c2c(F)cc(F)cc2c1=O` (racemic) [Example 10, 3-Chloro-4-(RS)-(3-(RS)-(6,8-difluoro-2,4-dioxo-1,2-dihydroquinazolin-3(4H)-yl)-2-methylphenyl)-7-(2-hydroxypropan-2-yl)-9H-carbazole-1-carboxamide], for which the half-inhibitory concentration (IC50) in experiment [1] is 110 nM.

In the case of `Cc1c(-c2c(F)cc(C(N)=O)c3[nH]c4cc(C(C)(C)O)ccc4c23)cccc1-n1c(=O)cc2c(F)cccn2c1=O` [Example 41, 3-Fluoro-4-(R)-(3-(5-fluoro-1,3-dioxo-1H-pyrido[1,2-c]pyrimidin-2(3H)-yl)-2-methylphenyl)-7-(2-hydroxypropan-2-yl)-9H-carbazole-1-carboxamide], at Jak2 tyrosine kinase (setting [2]), the “Ratio of Jak2/Btk IC50 values” came to 4000.

In experiment [1], `Cc1c(-c2c(Cl)cc(C(N)=O)c3[nH]c4c(c23)CC[C@H](C(C)(C)O)C4)cccc1-n1c(=O)c2cccc(F)c2n(C)c1=O` [Example 25, 6-Chloro-5-(3-(8-fluoro-1-methyl-2,4-dioxo-1,2-dihydroquinazolin-3(4H)-yl)-2-methylphenyl)-2-(S)-(2-hydroxypropan-2-yl)-2,3,4,9-tetrahydro-1H-carbazole-8-carboxamide] returned a half-inhibitory concentration (IC50) of 200 nM.

As for `Cc1c(-c2c(Cl)cc(C(N)=O)c3[nH]c4cc(C(C)(C)O)ccc4c23)cccc1-n1c(=O)cc2c(F)cccn2c1=O` [Example 36, 3-Chloro-4-(R)-(3-(5-fluoro-1,3-dioxo-1H-pyrido[1,2-c]pyrimidin-2(3H)-yl)-2-methylphenyl)-7-(2-hydroxypropan-2-yl)-9H-carbazole-1-carboxamide], the “Ratio of Jak2/Btk IC50 values” at Jak2 tyrosine kinase (setting [2]) is reported as 1600.

`Cc1c(-c2c(Cl)cc(C(N)=O)c3[nH]c4cc(C(C)(C)O)ccc4c23)cccc1-n1c(=O)cc2sccn2c1=O` [Example 39, 3-Chloro-4-(R)-(3-(5,7-dioxo-5H-thiazolo[3,2-c]pyrimidin-6(7H)-yl)-2-methylphenyl)-7-(2-hydroxypropan-2-yl)-9H-carbazole-1-carboxamide]: the “Ratio of Jak2/Btk IC50 values” at Jak2 tyrosine kinase (setting [2]) was determined as 1200.

For `Cc1nc(C(N)=O)c2[nH]c3cc(C(C)(C)O)ccc3c2c1-c1cccc(-n2cnc3ccccc3c2=O)c1C` [Comparative Example 76, 7-(2-Hydroxypropan-2-yl)-3-methyl-4-(2-methyl-3-(4-oxoquinazolin-3(4H)-yl)phenyl)-9H-pyrido[3,4-b]indole-1-carboxamide, reference compound], the “Ratio of Jak2/Btk IC50 values” at Jak2 tyrosine kinase (Jak2 IC50 over Btk IC50, larger value = more selective for Btk) is given as 29; on Jak2 tyrosine kinase (setting [2]) it was 29.
